From ChEMBL document CHEMBL1629661, “Carbapenem resistance among Pseudomonas aeruginosa strains from India: evidence for nationwide endemicity of multiple metallo-beta-lactamase clones (VIM-2, -5, -6, and -11 and the newly characterized VIM-18)” (2009)
≈ marks a conversion by molar mass, not a printed value.

Legend:
Assay type in all cases: functional
[1] = test system: Pseudomonas aeruginosa; experiment: Antimicrobial activity against Pseudomonas aeruginosa isolate 243-31C expressing beta-lactamase VIM-18 isolated from sputum of patient by broth microdilution method
[2] = test system: Escherichia coli; experiment: Antimicrobial activity against Escherichia coli harboring beta-lactamase VIM-18 by Etest
[3] = test system: Escherichia coli; experiment: Antimicrobial activity against Escherichia coli harboring beta-lactamase VIM-2 by Etest
[4] = test system: Escherichia coli; experiment: Ratio of MIC for Escherichia coli harboring beta-lactamase VIM-2 to MIC for Escherichia coli harboring beta-lactamase VIM-18
[5] = test system: Escherichia coli; experiment: Antimicrobial activity against Escherichia coli harboring plasmid pPCRScript by Etest
[6] = test system: Pseudomonas aeruginosa; experiment: Antimicrobial activity against Pseudomonas aeruginosa isolate 243-31C expressing beta-lactamase VIM-18 isolated from sputum of patient by broth microdilution method in presence of beta-lactamase inhibitor Tazobactam

Molecule | MIC [1] [µg/mL] | MIC [2] [µg/mL] | MIC [3] [µg/mL] | Ratio [4] | MIC [5] [µg/mL] | MIC [6] [µg/mL]
O=C(O)c1cn(C2CC2)c2cc(N3CCNCC3)c(F)cc2c1=O [CIPROFLOXACIN] | 0.06 (≈ 0.181 µM) | – | – | – | – | –
C[C@H]1[C@H](NC(=O)/C(=N\OC(C)(C)C(=O)O)c2csc(N)n2)C(=O)N1S(=O)(=O)O [AZTREONAM] | 16 (≈ 36.7 µM) | 0.032 (≈ 0.0735 µM) | 0.032 (≈ 0.0735 µM) | – | – | –
C[C@@H](O)[C@H]1C(=O)N2C(C(=O)O)=C(S[C@@H]3CN[C@H](C(=O)Nc4cccc(C(=O)O)c4)C3)[C@H](C)[C@H]12 | > 8 | 0.016 (≈ 0.0336 µM) | 0.25 (≈ 0.526 µM) | 9 | 0.006 (≈ 0.0126 µM) | –
C[C@@H](O)[C@H]1C(=O)N2C(C(=O)O)=C(SCCNC=N)C[C@H]12 [IMIPENEM ANHYDROUS] | 8 (≈ 26.7 µM) | – | 0.5 (≈ 1.67 µM) | – | – | –
CO/N=C(\C(=O)N[C@@H]1C(=O)N2C(C(=O)O)=C(CSc3nc(=O)c(O)nn3C)CS[C@H]12)c1csc(N)n1 [CEFTRIAXONE] | > 32 | – | – | – | – | –
C[C@@H](O)[C@H]1C(=O)N2C(C(=O)O)=C(S[C@@H]3CN[C@H](C(=O)N(C)C)C3)[C@H](C)[C@H]12 [MEROPENEM] | 8 (≈ 20.9 µM) | 0.064 (≈ 0.167 µM) | 0.125 (≈ 0.326 µM) | – | 0.032 (≈ 0.0834 µM) | –
Cc1nnc(SCC2=C(C(=O)O)N3C(=O)[C@@H](NC(=O)Cn4cnnn4)[C@H]3SC2)s1 [CEFAZOLIN] | > 16 | 32 (≈ 70.4 µM) | > 256 | 4 | 2 (≈ 4.4 µM) | –
CO/N=C(\C(=O)N[C@@H]1C(=O)N2C(C(=O)[O-])=C(C[N+]3(C)CCCC3)CS[C@H]12)c1csc(N)n1 | > 16 | – | 0.5 (≈ 1.04 µM) | – | 0.032 (≈ 0.0666 µM) | –
CO[C@@]1(NC(=O)Cc2cccs2)C(=O)N2C(C(=O)O)=C(COC(N)=O)CS[C@@H]21 [CEFOXITIN] | > 16 | 8 (≈ 18.7 µM) | > 256 | >6 | 4 (≈ 9.36 µM) | –
CC1(C)S[C@@H]2[C@H](NC(=O)[C@H](N)c3ccccc3)C(=O)N2[C@H]1C(=O)O [AMPICILLIN] | > 16 | 64 (≈ 183 µM) | > 256 | – | 4 (≈ 11.4 µM) | –
CO/N=C(\C(=O)N[C@@H]1C(=O)N2C(C(=O)O)=C(COC(C)=O)CS[C@H]12)c1csc(N)n1 [CEFOTAXIME] | – | 2 (≈ 4.39 µM) | 4 (≈ 8.78 µM) | – | 0.064 (≈ 0.141 µM) | –
CN(C)[C@@H]1C(O)=C(C(N)=O)C(=O)[C@@]2(O)C(O)=C3C(=O)c4c(O)cccc4[C@@](C)(O)[C@H]3C[C@@H]12 [TETRACYCLINE] | > 8 | – | – | – | – | –
POLYMYXIN B | 1 | – | – | – | – | –
NC[C@H]1O[C@H](O[C@H]2[C@H](O)[C@@H](O[C@H]3O[C@H](CO)[C@@H](O)[C@H](N)[C@H]3O)[C@H](N)C[C@@H]2N)[C@H](N)C[C@@H]1O [TOBRAMYCIN] | > 16 | – | – | – | – | –
CC(C)(O/N=C(\C(=O)N[C@@H]1C(=O)N2C(C(=O)[O-])=C(C[n+]3ccccc3)CS[C@H]12)c1csc(N)n1)C(=O)O [CEFTAZIDIME] | > 16 | 16 (≈ 29.3 µM) | 4 (≈ 7.32 µM) | – | 0.125 (≈ 0.229 µM) | –
CCN1CCN(C(=O)N[C@@H](C(=O)N[C@@H]2C(=O)N3[C@@H]2SC(C)(C)[C@@H]3C(=O)O)c2ccccc2)C(=O)C1=O [PIPERACILLIN] | > 64 | 8 (≈ 15.5 µM) | 4 (≈ 7.73 µM) | – | 2 (≈ 3.86 µM) | > 64
GENTAMICIN | 8 | – | – | – | – | –
C[C@@H](O)[C@H]1C(=O)N2C(C(=O)O)=C(S[C@@H]3CN[C@H](CNS(N)(=O)=O)C3)[C@H](C)[C@H]12 [DORIPENEM] | 4 (≈ 9.51 µM) | – | – | – | – | –
NCC[C@H](O)C(=O)N[C@@H]1C[C@H](N)[C@@H](O[C@H]2O[C@H](CN)[C@@H](O)[C@H](O)[C@H]2O)[C@H](O)[C@H]1O[C@H]1O[C@H](CO)[C@@H](O)[C@H](N)[C@H]1O [AMIKACIN] | > 32 | – | – | – | – | –
